Columns and labels:
[1] = target: T1, KcsA-Kv1.2 T-only chimera (Streptomyces lividans, UniProt P0A334, R52A/G53D/A54E/P55R/G56E/A57S/L59F/I60P/T61S/Y62I/R64D); experiment: Phage ELISA-binding assay, KcsA-Kv1.2 T-only; set-up: species or system human Kv1.2 turret in Streptomyces lividans KcsA; conditions: toxin displayed on M13 phage, Fig. 7C
T1 sequence (P0A334 1-160 R52A/G53D/A54E/P55R/G56E/A57S/L59F/I60P/T61S/Y62I/R64D): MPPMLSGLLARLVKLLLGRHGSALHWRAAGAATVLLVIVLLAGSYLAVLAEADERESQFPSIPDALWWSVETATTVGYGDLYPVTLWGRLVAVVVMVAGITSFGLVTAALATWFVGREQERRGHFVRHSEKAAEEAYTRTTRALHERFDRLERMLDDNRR
Protocol: Phage display test solutions were prepared according to routine phage display protocols ([62]). Phosphorylated and annealed oligonucleotides encoding the peptide construct were ligated into linearized pAS62 phagemid vector (https://patents.google.com/patent/WO2022144560A1/en) at a vector/insert ratio of 1:3. The final phagemid construct harbored a signal sequence followed by the peptide of interest, a linker sequence ([…]), and the C-terminal part of the P3 coat protein (amino acids: 216-424 of NP_510891.1). Chemically competent XL1-Blue E. coli cells (2022249, Agilent) were transformed with the ligation product and then streaked onto ampicillin (100 μg/ml) containing LB/Amp plates and incubated for 16 h at 37 °C. A few clones were sequenced, and a single colony with confirmed target sequence was inoculated into 3 ml 2 YT medium supplemented with 100 μg/ml ampicillin and incubated at 37 °C until the culture reached midlog phase. The culture was infected with M13KO7 helper phage (N0315S, New England Biolabs) (phage/cell ratio 10:1) and was incubated for 30 min at 37 °C. The 3 ml culture was transferred into 200 ml 2YT medium, supplemented with 100 μg/ml ampicillin and 25 μg/ml kanamycin, and incubated overnight at 37 °C. The overnight cell culture (200 ml) was pelleted by centrifugation at 8000g for 10 min in 400 ml centrifuge tubes at 4 °C. […] The particle concentrations of phage solutions were determined using a NanoDrop One C (Thermo Fisher Scientific) spectrophotometer. The phage particle concentration was assessed according to the formula: (A268–A320) × 5 × 10^12 particles/ml ([62]). […]
Phage stock solutions were diluted to working concentration with phage resuspension buffer supplemented with 2 mM DDM. […] Following blocking, the wells were washed 4× with washing buffer (300 μl TBS-Tween, 0.1% v/v) using a Wellwash Versa microplate washer (Thermo Fisher Scientific); then 50 μl phage solution (in TBS-BSA-Tween, 0.1% v/v, 2 mM DDM) at determined phage concentration was added to the wells and incubated for 1 h at room temperature on a horizontal shaker. […]

human Kv1.3 = human Kv1.3 channel blocking, patch-clamp; read-out: IC50, Kv1.x blocking (Kv1.3); cited from earlier work
Text: Table 1 Summary of chimeric protein-binding prediction studies in the light of IC50 values | column: Kv1.x blocking / IC50 (nM) || Peptide toxins of venomous animal origin as lead molecules for optimization may offer an advantage over small molecules in terms of potentially greater affinity and specificity. These miniproteins are usually up to 50 amino acids in length and can adopt distinct conformation with secondary structural elements stabilized by several disulfide bonds ([9], [10], [11]). Due to their considerable surface area, miniproteins can form stable complexes with target proteins through extensive interaction surfaces ([12], [13]). The miniprotein Kv1.3 blocker drug candidate, Dalazatide—a synthetic derivative ... || Our initial investigation focused on assessing the relative binding affinities of various channel-blocking toxins to the T-only version of the KcsA-Kv1.3 chimera. Subsequently, we evaluated whether these affinities aligned with the toxins' blocking efficacy on native human Kv1.3 channels, as determined by patch-clamp assay.

human Kv1.1 = human Kv1.1 channel blocking, patch-clamp; read-out: IC50, Kv1.x blocking (Kv1.1); cited from earlier work

SMILES: CC[C@H](C)[C@H](NC(=O)[C@H](CCC(=O)O)NC(=O)[C@@H](NC(=O)CN)C(C)C)C(=O)N[C@@H](CC(N)=O)C(=O)N[C@H](C(=O)N[C@@H](CCCCN)C(=O)N[C@H]1CSSC[C@@H]2NC(=O)[C@H](CCCCN)NC(=O)CNC(=O)[C@H](Cc3ccccc3)NC(=O)[C@H](CCCNC(=N)N)NC(=O)[C@H](CCSC)NC(=O)CNC(=O)[C@H](C)NC(=O)[C@H](CC(=O)O)NC(=O)[C@H](CCCCN)NC(=O)[C@@H]3CSSC[C@@H](C(=O)N[C@H](C(=O)N4CCC[C@H]4C(=O)N[C@@H](CCCCN)C(=O)O)[C@@H](C)O)NC(=O)[C@H](Cc4c[nH]cn4)NC(=O)[C@H](CSSC[C@H](NC(=O)[C@H](CCC(N)=O)NC(=O)[C@@H]4CCCN4C(=O)[C@H](CO)NC(=O)CNC(=O)[C@H](CO)NC1=O)C(=O)N[C@@H](CC(C)C)C(=O)N[C@@H](CCCCN)C(=O)N1CCC[C@H]1C(=O)N3)NC(=O)[C@H](CCCCN)NC(=O)[C@H](CCCNC(=N)N)NC(=O)[C@H](CC(N)=O)NC(=O)[C@H](CCSC)NC2=O)C(C)C [KTX1, Kaliotoxin-1]
- phage binding to KcsA-Kv1.2 T-only, in words [1]: inconsistent with their published channel blocking potencies
- IC50 (human Kv1.3): 0.65 nM
- IC50 (human Kv1.1): 1.1 to 41 nM

Reference: PMC11002876, “KcsA-Kv1.x chimeras with complete ligand-binding sites provide improved predictivity for screening selective Kv1.x blockers” (The Journal of Biological Chemistry, 2024)
